Converted amounts (≈) assume the structure as drawn.
Assays:
E. faecium ATCC 35667 = test: MIC and MBC testing, broth microdilution; type: cell-based, Enterococcus faecium; conditions: Enterococcus faecium, ATCC35667, E. faecium ATCC 35667
Procedure, shortened: (§1)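 Twofold serial dilutions of compound in DMSO were prepared in MH broth and mixed with log-phase bacteria, which had been diluted to 1 × 10^6 CFU/mL before mixing. Plates were incubated 18 h at 37 °C. MIC was the lowest concentration without visible growth, in triplicate.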

[1] = system: clinical S. aureus isolate LMY48; test: MIC and MBC testing, broth microdilution; type: cell-based, Staphylococcus aureus; conditions: Staphylococcus aureus, LMY48
Procedure, shortened: (§2)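 MIC and MBC determined by broth microdilution with twofold compound dilutions (from DMSO stock) in MH broth. Log-phase inoculum at 1 × 10^6 CFU/mL; 18 h incubation at 37 °C.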

MRSA-1 = test: MIC and MBC testing, broth microdilution; type: cell-based, Staphylococcus aureus; conditions: Staphylococcus aureus, MRSA-1
Procedure, shortened: as §2

MRSA-2 [2] = test: MIC and MBC testing, broth microdilution; type: cell-based, Staphylococcus aureus; conditions: Staphylococcus aureus, MRSA-2
Procedure, shortened: as §2

[3] = system: clinical S. aureus isolate LMY45; test: MIC and MBC testing, broth microdilution; type: cell-based, Staphylococcus aureus; conditions: Staphylococcus aureus, LMY45
Procedure, shortened: as §2

[4] = system: clinical S. aureus isolate LMY46; test: MIC and MBC testing, broth microdilution; type: cell-based, Staphylococcus aureus; conditions: Staphylococcus aureus, LMY46
Procedure, shortened: as §2

[5] = system: clinical S. aureus isolate LMY47; test: MIC and MBC testing, broth microdilution; type: cell-based, Staphylococcus aureus; conditions: Staphylococcus aureus, LMY47
Procedure, shortened: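 Broth microdilution in MH broth; two-fold serial dilutions of DMSO-dissolved compound; inoculum 1 × 10^6 CFU/mL from log-phase culture; 37 °C, 18 h; triplicates; MBC also read.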

P. aeruginosa ATCC 27853 = test: MIC and MBC testing, broth microdilution; type: cell-based, Pseudomonas aeruginosa; conditions: Pseudomonas aeruginosa
Procedure, shortened: as §1

MRSA-2 [6] = type: cell-based, Staphylococcus aureus; conditions: not told
Method: MRSA-2 bacterial precipitates in the logarithmic growth phase were collected by centrifugation, washed, and resuspended in PBS to a density of 1 × 10^6 CFU/mL. PI (10 μM, 40 μL) was added to a black 96-well plate along with 150 μL of bacterial suspension. After an incubation period of 30 min, fluorescence was detected at excitation wavelengths of 535 nm and emission wavelengths of 617 nm at 5 min intervals until a stable state was reached.

E. coli ATCC 25922 = test: MIC and MBC testing, broth microdilution; type: cell-based, Escherichia coli; conditions: Escherichia coli
Procedure, shortened: as §1

MRSA-2 [7] = test: Growth curve (OD600); type: cell-based, Staphylococcus aureus; conditions: 2D 0.5, 1, 2, 4, 8 µg/mL, vancomycin 0.5 and 1 μg/mL
Method: (§3) The growth inhibition and time-dependent killing abilities of 2D were evaluated against S. aureus (ATCC 29213) and MRSA-2. After culturing the strains in MH broth until the logarithmic growth phase, they were diluted with MH broth to 1 × 10^6 CFU/mL. […] OD600 values were measured at predetermined time intervals (0, 1, 2, 4, 6, 8, 10, 12, and 24 h).

S. aureus (ATCC 29213) = test: Growth curve (OD600); type: cell-based, Staphylococcus aureus; conditions: 2D 0.5, 1, 2, 4, 8 µg/mL, vancomycin 0.5 and 1 μg/mL
Method: as §3

MRSA-2 [8] = test: Membrane depolarization assay, DiSC3(5); type: cell-based, Staphylococcus aureus; conditions: 2, 4, and 8 μg/mL
Method: MRSA-2 was cultivated in MH broth, with a final concentration of 1 × 10^8 CFU/mL. After centrifugation, the supernatant was discarded. The bacterial precipitate was washed thrice and resuspended with PBS. Subsequently, the bacterial resuspension (180 μL) and the DiSC5 (10 μL, 3 μM) were incubated in the dark for 30 min. The fluorescence intensity was measured at 2 min intervals for a period of 10 min. After the fluorescence intensity was stabilized, 10 μL of 2D (final concentrations of 1, 2, 4, and 8 μg/mL) was added, respectively. The fluorescence intensity was measured at 2 min intervals for a total duration of 30 min. The excitation/emission wavelength was 622/670 nm.

[H]/N=C(\N)NN=C1CCCc2cc(OCCCCCCC)ccc21 [Compound 2D, (E)-2-(6-(heptyloxy)-3,4-dihydronaphthalen-1(2H)-ylidene)hydrazine-1-carboximidamide]
MIC (E. faecium ATCC 35667; 18 h, read-out: MIC): 2 µg/mL (≈ 6.32 µM) | MBC (E. faecium ATCC 35667; read-out: MBC): 4 µg/mL (≈ 12.6 µM) | MIC ([1]; 18 h, read-out: MIC): 2 µg/mL (≈ 6.32 µM) | MBC ([1]; read-out: MBC): 2 µg/mL (≈ 6.32 µM) | MIC (MRSA-1; 18 h, read-out: MIC): 1 µg/mL (≈ 3.16 µM) | MBC (MRSA-1; read-out: MBC): 16 µg/mL (≈ 50.6 µM) | MIC (MRSA-2 [2]; 18 h, read-out: MIC): 1 µg/mL (≈ 3.16 µM) | MBC (MRSA-2 [2]; read-out: MBC): 4 µg/mL (≈ 12.6 µM) | MIC ([3]; 18 h, read-out: MIC): 2 µg/mL (≈ 6.32 µM) | MBC ([3]; read-out: MBC): 2 µg/mL (≈ 6.32 µM) | MIC ([4]; 18 h, read-out: MIC): 4 µg/mL (≈ 12.6 µM) | MBC ([4]; read-out: MBC): 32 µg/mL (≈ 101 µM) | MIC ([5]; 18 h, read-out: MIC): 1 µg/mL (≈ 3.16 µM) | MBC ([5]; read-out: MBC): 4 µg/mL (≈ 12.6 µM) | MIC (P. aeruginosa ATCC 27853; ATCC27853, 18 h, read-out: MIC): 16 µg/mL (≈ 50.6 µM) | MBC (P. aeruginosa ATCC 27853; ATCC27853, read-out: MBC): 32 µg/mL (≈ 101 µM) | PI fluorescence intensity (inner membrane permeability) (MRSA-2 [6]): significantly enhanced | MIC (E. coli ATCC 25922; ATCC25922, 18 h, read-out: MIC): 4 µg/mL (≈ 12.6 µM) | MBC (E. coli ATCC 25922; ATCC25922, read-out: MBC): 8 µg/mL (≈ 25.3 µM) | growth inhibition (growth curve) (MRSA-2 [7]): able to suppress the growth | growth inhibition (growth curve) (S. aureus (ATCC 29213)): able to suppress the growth | DiSC3(5) fluorescence intensity (depolarization) (MRSA-2 [8]): increased instantaneously

— PMC12250302, “Synthesis, Antimicrobial Activities, and Model of Action of Novel Tetralone Derivatives Containing Aminoguanidinium Moiety” (International Journal of Molecular Sciences, 2025)
